Results on twelve compounds are retold here after patent US10669305B2, “C-3 novel triterpenone with C-28 urea derivatives as HIV inhibitors” (Hetero Labs Limited, priority 2015, dated 2020).

Where a name gives a salt, the structure may show the parent alone. Read-outs that look alike come from different tables or passages of the source.

This experiment deals with HIV-1 strain 92HT599. The experiment in a line: Antiviral activity, p24 estimation in HIV-1 92HT599 infected MT2 cells. Format: cell-based. Conditions: ~96 hours. On the procedure:
MT2 cells were infected with HIV-1 strain 92HT599 (10 TCID 50/30000 cells). The infected cells were plated at the concentration of ˜30,000 cells per well in 96 well plate. Test compound was added to the micro plate in defined format with the final concentration of DMSO (vehicle) is not more than 1%. Incubation was carried out in CO2 incubator for ˜96 hours for viral infection. At the end of incubation period an aliquot from each well was taken for p24 estimation. The quantitation of p24 is an index for antiviral activity of the compound. Percent inhibition was calculated with reference to control values (vehicle controls). P-24 estimation was carried out using Advance biosciences kit as per the procedure detailed by supplier.

Where [1] appears, read: Human immunodeficiency virus 1, 0% serum, read-out: 92HT599-Antiviral activity IC50 (nM) 0%.
[2] abbreviates: Human immunodeficiency virus 1, 40% serum, read-out: 92HT599-Antiviral activity IC50 (nM) 40%.

Broadly, the IC50 is the concentration that gives 50% inhibition. With `CC(C)C1=C2[C@H]3CC[C@@H]4[C@@]5(C)CC[C@H](OC(=O)[C@H]6C[C@@H](C(=O)O)C6(C)C)C(C)(C)[C@@H]5CC[C@@]4(C)[C@]3(C)CC[C@@]2(NC(=O)N2CCC[C@H]2CN2CCCC2)CC1=O` [Example 13, (1R,3S)-3-((((3aR,5aR,5bR,7aR,9S,11aR,11bR,13aS)-1-isopropyl-5a,5b,8,8,11a-pentamethyl-2-oxo-3a-((S)-2-(pyrrolidin-1-ylmethyl)pyrrolidine-1-carboxamido)-3,3a,4,5,5a,5b,6,7,7a,8,9,10,11,11a,11b,12,13,13a-octadecahydro-2H-cyclopenta[a]chrysen-9-yl)oxy)carbonyl)-2,2-dimethylcyclobutane-1-carboxylic acid], the IC50 was under 5 nM under setting [1] and over 50 nM under setting [2].
For the compound `CC(C)C1=C2[C@H]3CC[C@@H]4[C@@]5(C)CC[C@H](OC(=O)[C@H]6C[C@@H](C(=O)O)C6(C)C)C(C)(C)[C@@H]5CC[C@@]4(C)[C@]3(C)CC[C@@]2(NC(=O)N2CCC[C@H]2c2ncc(-c3ccccc3)n2CCN(C)C)CC1=O` [Example 2, (1R,3S)-3-((((3aR,5aR,5bR,7aR,9S,11aR,11bR,13aS)-3a-((S)-2-(1-(2-(dimethylamino)ethyl)-5-phenyl-1H-imidazol-2-yl)pyrrolidine-1-carboxamido)-1-isopropyl-5a,5b,8,8,11a-pentamethyl-2-oxo-3,3a,4,5,5a,5b,6,7,7a,8,9,10,11,11a,11b,12,13,13a-octadecahydro-2H-cyclopenta[a]chrysen-9-yl)oxy)carbonyl)-2,2-dimethylcyclobutane-1-carboxylic acid], the IC50 under setting [1] was under 5 nM and the IC50 under setting [2] is under 30 nM.
Turning to `Cc1nnc(C(C)C)n1C1CC2CCC(C1)N2C(=O)N[C@@]12CC[C@]3(C)[C@H](CC[C@@H]4[C@@]5(C)CC[C@H](OC(=O)[C@H]6C[C@@H](C(=O)O)C6(C)C)C(C)(C)[C@@H]5CC[C@]43C)C1=C(C(C)C)C(=O)C2` (stereo partly drawn) [Example 8, (1R,3S)-3-((((3aR,5aR,5bR,7aR,9S,11aR,11bR,13aS)-1-isopropyl-3a-((1R,3S,5S)-3-(3-isopropyl-5-methyl-4H-1,2,4-triazol-4-yl)-8-azabicyclo[3.2.1]octane-8-carboxamido)-5a,5b,8,8,11a-pentamethyl-2-oxo-3,3a,4,5,5a,5b,6,7,7a,8,9,10,11,11a,11b,12,13,13a-octadecahydro-2H-cyclopenta[a]chrysen-9-yl)oxy)carbonyl)-2,2-dimethylcyclobutane-1-carboxylic acid], the half-inhibitory concentration (IC50) was 5.01 to 10 nM under setting [1] and over 50 nM under setting [2].
As to `CC(C)C1=C2[C@H]3CC[C@@H]4[C@@]5(C)CC[C@H](OC(=O)[C@H]6C[C@@H](C(=O)O)C6(C)C)C(C)(C)[C@@H]5CC[C@@]4(C)[C@]3(C)CC[C@@]2(NC(=O)N(CCN(C)C)Cc2ccc(Cl)cc2)CC1=O` [Example 1, (1R,3S)-3-((((3aR,5aR,5bR,7aR,9S,11aR,11bR,13aS)-3a-(3-(4-chlorobenzyl)-3-(2-(dimethylamino)ethyl)ureido)-1-isopropyl-5a,5b,8,8,11a-pentamethyl-2-oxo-3,3a,4,5,5a,5b,6,7,7a,8,9,10,11,11a,11b,12,13,13a-octadecahydro-2H-cyclopenta[a]chrysen-9-yl)oxy)carbonyl)-2,2-dimethylcyclobutane-1-carboxylic acid hydrochloride], the half-inhibitory concentration (IC50) is, setting by setting: under setting [1], under 5 nM; under setting [2], over 50 nM.
In the case of `Cc1nnc(C(C)C)n1CCN1CCN(C(=O)N[C@@]23CC[C@]4(C)[C@H](CC[C@@H]5[C@@]6(C)CC[C@H](OC(=O)[C@H]7C[C@@H](C(=O)O)C7(C)C)C(C)(C)[C@@H]6CC[C@]54C)C2=C(C(C)C)C(=O)C3)CC1` [Example 12, (1R,3S)-3-((((3aR,5aR,5bR,7aR,9S,11aR,11bR,13aS)-1-isopropyl-3a-(4-(2-(3-isopropyl-5-methyl-4H-1,2,4-triazol-4-yl)ethyl)piperazine-1-carboxamido)-5a,5b,8,8,11a-pentamethyl-2-oxo-3,3a,4,5,5a,5b,6,7,7a,8,9,10,11,11a,11b,12,13,13a-octadecahydro-2H-cyclopenta[a]chrysen-9-yl)oxy)carbonyl)-2,2-dimethycyclobutane-1-carboxylic acid], the IC50 reads like this: under setting [1], over 10 nM; under setting [2], over 50 nM.
The like results for `CC(C)C1=C2[C@H]3CC[C@@H]4[C@@]5(C)CC[C@H](OC(=O)[C@H]6C[C@@H](C(=O)O)C6(C)C)C(C)(C)[C@@H]5CC[C@@]4(C)[C@]3(C)CC[C@@]2(NC(=O)NC(C)(C)c2ncc(-c3ccccc3)[nH]2)CC1=O` [Example 10, (1R,3S)-3-((((3aR,5aR,5bR,7aR,9S,11aR,11bR,13aS)-1-isopropyl-5a,5b,8,8,11a-pentamethyl-2-oxo-3a-(3-(2-(5-phenyl-1H-imidazol-2-yl)propan-2-yl)ureido)-3,3a,4,5,5a,5b,6,7,7a,8,9,10,11,11a,11b,12,13,13a-octadecahydro-2H-cyclopenta[a]chrysen-9-yl)oxy)carbonyl)-2,2-dimethylcyclobutane-1-carboxylic acid] were, in that order, under 5 nM and under 30 nM.
On to `CC(C)C1=C2[C@H]3CC[C@@H]4[C@@]5(C)CC[C@H](OC(=O)[C@H]6C[C@@H](C(=O)O)C6(C)C)C(C)(C)[C@@H]5CC[C@@]4(C)[C@]3(C)CC[C@@]2(NC(=O)NC(C)(C)c2ccc(Cl)cc2)CC1=O` [Example 5, (1R,3S)-3-((((3aR,5aR,5bR,7aR,9S,11aR,11bR,13aS)-3a-(3-(2-(4-chlorophenyl)propan-2-yl)ureido)-1-isopropyl-5a,5b,8,8,11a-pentamethyl-2-oxo-3,3a,4,5,5a,5b,6,7,7a,8,9,10,11,11a,11b,12,13,13a-octadecahydro-2H-cyclopenta[a]chrysen-9-yl)oxy)carbonyl)-2,2-dimethylcyclobutane-1-carboxylic acid], for which the IC50 under setting [1] was under 5 nM and the concentration for half-maximal inhibition (IC50) under setting [2] was under 30 nM.
On to `CC(C)C1=C2[C@H]3CC[C@@H]4[C@@]5(C)CC[C@H](OC(=O)[C@H]6C[C@@H](C(=O)O)C6(C)C)C(C)(C)[C@@H]5CC[C@@]4(C)[C@]3(C)CC[C@@]2(NC(=O)N(CCN(C)C)CC2(c3ccc(Cl)cc3)CC2)CC1=O` [Example 6, (1R,3S)-3-((((3aR,5aR,5bR,7aR,9S,11aR,11bR,13aS)-3a-(3-((1-(4-chlorophenyl)cyclopropyl)methyl)-3-(2-(dimethylamino)ethyl)ureido)-1-isopropyl-5a,5b,8,8,11a-pentamethyl-2-oxo-3,3a,4,5,5a,5b,6,7,7a,8,9,10,11,11a,11b,12,13,13a-octadecahydro-2H-cyclopenta[a]chrysen-9-yl)oxy)carbonyl)-2,2-dimethylcyclobutane-1-carboxylic acid], for which the IC50 under setting [1] is under 5 nM and the IC50 under setting [2] was 30 to 50 nM.
For the compound `CC(C)C1=C2[C@H]3CC[C@@H]4[C@@]5(C)CC[C@H](OC(=O)[C@H]6C[C@@H](C(=O)O)C6(C)C)C(C)(C)[C@@H]5CC[C@@]4(C)[C@]3(C)CC[C@@]2(NC(=O)NC2(c3ccc(Cl)cc3)CC2)CC1=O` [Example 4, (1R,3S)-3-((((3aR,5aR,5bR,7aR,9S,11aR,11bR,13aS)-3a-(3-(1-(4-chlorophenyl)cyclopropyl)ureido)-1-isopropyl-5a,5b,8,8,11a-pentamethyl-2-oxo-3,3a,4,5,5a,5b,6,7,7a,8,9,10,11,11a,11b,12,13,13a-octadecahydro-2H-cyclopenta[a]chrysen-9-yl)oxy)carbonyl)-2,2-dimethylcyclobutane-1-carboxylic acid], the half-maximal inhibitory concentration (IC50) reads like this: under setting [1], under 5 nM; under setting [2], over 50 nM.
`CC(C)C1=C2[C@H]3CC[C@@H]4[C@@]5(C)CC[C@H](OC(=O)[C@H]6C[C@@H](C(=O)O)C6(C)C)C(C)(C)[C@@H]5CC[C@@]4(C)[C@]3(C)CC[C@@]2(NC(=O)N(CCN2CCCCC2)Cc2ccc(Cl)cc2)CC1=O` [Example 11, (1R,3S)-3-((((3aR,5aR,5bR,7aR,9S,11aR,11bR,13aS)-3a-(3-(4-chlorobenzyl)-3-(2-(piperidin-1-yl)ethyl)ureido)-1-isopropyl-5a,5b,8,8,11a-pentamethyl-2-oxo-3,3a,4,5,5a,5b,6,7,7a,8,9,10,11,11a,11b,12,13,13a-octadecahydro-2H-cyclopenta[a]chrysen-9-yl)oxy)carbonyl)-2,2-dimethylcyclobutane-1-carboxylic acid hydrochloride]: the IC50 reads like this: under setting [1], under 5 nM; under setting [2], 30 to 50 nM.
On to `CC(C)C1=C2[C@H]3CC[C@@H]4[C@@]5(C)CC[C@H](OC(=O)[C@H]6C[C@@H](C(=O)O)C6(C)C)C(C)(C)[C@@H]5CC[C@@]4(C)[C@]3(C)CC[C@@]2(NC(=O)N2CCC[C@H]2c2ncc(-c3ccccc3)[nH]2)CC1=O` [Example 3, (1R,3S)-3-((((3aR,5aR,5bR,7aR,9S,11aR,11bR,13aS)-1-isopropyl-5a,5b,8,8,11a-pentamethyl-2-oxo-3a-((S)-2-(5-phenyl-1H-imidazol-2-yl)pyrrolidine-1-carboxamido)-3,3a,4,5,5a,5b,6,7,7a,8,9,10,11,11a,11b,12,13,13a-octadecahydro-2H-cyclopenta[a]chrysen-9-yl)oxy)carbonyl)-2,2-dimethylcyclobutane-1-carboxylic acid], for which the half-inhibitory concentration (IC50) reads like this: under setting [1], 5.01 to 10 nM; under setting [2], 30 to 50 nM.
Turning to `CC(C)C1=C2[C@H]3CC[C@@H]4[C@@]5(C)CC[C@H](OC(=O)[C@H]6C[C@@H](C(=O)O)C6(C)C)C(C)(C)[C@@H]5CC[C@@]4(C)[C@]3(C)CC[C@@]2(NC(=O)NCc2ccc(Cl)cc2)CC1=O` [Example 7, (1R,3S)-3-((((3aR,5aR,5bR,7aR,9S,11aR,11bR,13aS)-3a-(3-(4-chlorobenzyl)ureido)-1-isopropyl-5a,5b,8,8,11a-pentamethyl-2-oxo-3,3a,4,5,5a,5b,6,7,7a,8,9,10,11,11a,11b,12,13,13a-octadecahydro-2H-cyclopenta[a]chrysen-9-yl)oxy)carbonyl)-2,2-dimethylcyclobutane-1-carboxylic acid], the IC50 by setting is: under setting [1], 5.01 to 10 nM; under setting [2], 30 to 50 nM.
